Test results published in PMC4734766, “Pentamidine Is Not a Permeant but a Nanomolar Inhibitor of the Trypanosoma brucei Aquaglyceroporin-2” (PLoS Pathogens, 2016).
Like-named read-outs stand apart in the source and are kept apart here.

What was measured:
[1] = molecular target: T1, TbAQP3 (Trypanosoma brucei brucei, UniProt Q6ZXT2)
[2] = molecular target: T2, TbAQP2 (Trypanosoma brucei brucei, UniProt Q6ZXT3); conditions: pH 5.5
T2 sequence (Q6ZXT3 1-312): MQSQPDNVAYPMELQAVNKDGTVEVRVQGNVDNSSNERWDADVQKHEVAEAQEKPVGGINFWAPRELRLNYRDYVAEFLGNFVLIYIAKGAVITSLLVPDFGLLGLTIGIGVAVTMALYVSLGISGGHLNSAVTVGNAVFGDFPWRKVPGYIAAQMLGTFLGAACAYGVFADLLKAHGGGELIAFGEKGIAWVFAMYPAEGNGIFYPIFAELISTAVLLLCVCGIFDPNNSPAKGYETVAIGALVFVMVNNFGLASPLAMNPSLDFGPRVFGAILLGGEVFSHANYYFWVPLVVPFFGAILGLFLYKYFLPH

[3] = system: other AQPs; conditions: covalent cysteine-modification; cited from earlier work
[4] = cited from earlier work
[5] = molecular target: T2, TbAQP2; conditions: not told, pH 7.2
[6] = molecular target: T2, TbAQP2; assay: cell-based
[7] = molecular target: T2, TbAQP2
[8] = system: yeast; conditions: cited from earlier work
[9] = format: physicochemical; conditions: prohibits a sufficiently concentrated gradient in the light-scattering assay
From the text: Next, we employed a biophysical light-scattering assay for TbAQP2 permeability. We expressed TbAQP2 in a yeast strain that lacks the endogenous aquaglyceroporin (Δfps1), prepared protoplasts, and challenged them by a hypertonic, test solute-containing buffer. In an initial rapid phase, the protoplasts will release water following the outward osmotic gradient and shrink as indicated by an increase in light scattering. In the second slower phase, volume will be regained if the test solute can pass TbAQP2 and enter the protoplasts. […] We used instead two pairs of test solutes, glycerol/3-aminopropane-1,2-diol and urea/formamidine, of which glycerol and urea are established permeants of TbAQP2 [11], whereas the respective partners are bioisosteric nitrogen-derivatives, which are positively charged at neutral pH (Fig 1F). […] Formamidine is too strong a base (pKa 13) to be amenable to deprotonation in aqueous solution. […] The lack of permeability for the charged compounds is not due to molecule size, because formamidine is even smaller than urea. […] We conclude that organic cations fail to traverse the TbAQP2 channel.

[10] = molecular target: T1, TbAQP3; conditions: up to 500 μM pentamidine added 10 min prior to the assay
[11] = system: yeast; assay: Phenotypic yeast growth assay, pentamidine susceptibility on YPG (glycerol) media; format: cell-based, Saccharomyces cerevisiae; conditions: pentamidine isethionate 1 or 10 μg ml–1, compared with non-expressing and TbAQP3 expressing cells
[12] = system: T. brucei expressing mutant TbAQP2 (GFPAQP2 L264R); assay: alamarBlue EC50 assay, aqp2-null strain expressing GFP-TbAQP2 Leu264Arg; conditions: Trypanosoma brucei
Protocol: Bloodstream-form T. brucei, Lister 427, MiTat 1.2, clone 221a and derivatives were maintained as previously described [2]; 2T1 [1] and aqp2 null strains [2] were also described previously. Strains were transfected using a Nucleofector apparatus (Lonza) in conjunction with cytomix and transformants were selected with hygromycin (2.5 μg ml^–1). ^GFPAQP expression was induced by exposing cells to 1 μg ml^–1 tetracycline for 48 h. EC50 assays were carried out using alamarBlue as described [44, 45].

[13] = IC50, inhibition of TbAQP2 glycerol permeability

T1 sequence (Q6ZXT2 whole entry): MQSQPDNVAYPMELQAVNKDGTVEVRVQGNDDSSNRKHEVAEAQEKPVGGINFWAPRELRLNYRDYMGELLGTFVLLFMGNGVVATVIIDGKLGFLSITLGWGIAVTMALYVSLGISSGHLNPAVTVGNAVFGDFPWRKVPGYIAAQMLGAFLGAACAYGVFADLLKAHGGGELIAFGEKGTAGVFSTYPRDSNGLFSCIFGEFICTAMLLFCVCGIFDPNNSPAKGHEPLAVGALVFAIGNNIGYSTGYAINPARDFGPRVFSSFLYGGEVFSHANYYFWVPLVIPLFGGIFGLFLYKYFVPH

CN [methylammonium]
permeability of TbAQP3 for the positively charged compound form ([1]; 50 mM methylammonium, pH 5.5, yeast survival): impermeable
permeability of TbAQP2 for the positively charged compound form ([2]; not told): impermeable

[Cl][Au]([Cl])[Cl].c1cnc2c(c1)ccc1cccnc12 [auphen]
IC50 [3]: 0.8 µM

NCC(O)CO (stereo not shown) [3-aminopropane-1,2-diol]
pKa [4]: 9.2
permeability of TbAQP2 for the solute [5]: did not pass

NC(N)=O [urea]
permeability of TbAQP2 for the solute [5]: showed permeability

CCCCCOc1ccc(C(=N)N)cc1 [4-pentoxy-benzamidine]
IC50 [6, 13]: 87 µM

N#Cc1ccc(OCCCCCOc2ccc(C(=N)N)cc2)cc1 [nitrile-pentamidine]
IC50 [6, 13]: 0.18 µM

N=C(N)c1ccc(OCCCCCOc2ccc(C(=N)N)cc2)cc1 [pentamidine]
pKa [4]: 12.1
block of TbAQP2 glycerol permeability ([7]; not told): fully blocked
reduced affinity versus pH 7.2 ([7]; pH 2.5): 8 times
reduced affinity versus pH 7.2 ([7]; pH 3.5): 3 times
IC50 [6, 13]: 0.13 µM
IC50 ([6]; IC50, pentamidine inhibition of TbAQP2, pH 2.5): 1.1 µM
IC50 ([6]; IC50, pentamidine inhibition of TbAQP2, pH 3.5): 0.45 µM
cytotoxicity to yeast [8]: cytotoxic
solubility [9]: low solubility
effect on glycerol permeability of TbAQP3 [10]: unaffected
pentamidine susceptibility of yeast on expression of TbAQP2 [11]: did not increase the susceptibility
EC50 [12]: 0.103 µM

OCC(O)CO [glycerol]
permeability of TbAQP2 for the solute [5]: showed permeability

N=CN [formamidine]
pKa [4]: 13
permeability of TbAQP2 for the solute [5]: did not pass

CCCOc1ccc(C(=N)N)cc1 [4-propoxy-benzamidine]
maximal inhibition of TbAQP2 [7]: 60%
IC50 [6, 13]: 2800 µM

COc1ccc(C(=N)N)cc1 [4-methoxy-benzamidine]
inhibition of TbAQP2 (in words) [7]: incapable of inhibiting TbAQP2

N [NH4 ^+, ammonium]
NH4+ uptake on TbAQP3 expression ([1]; pH 5.5, NH4+ as sole nitrogen source, versus cells without ammonium transporter): neither expression of TbAQP2 nor TbAQP3 enhanced the NH4 ^+ uptake
NH4+ uptake on TbAQP2 expression [2]: neither expression of TbAQP2 nor TbAQP3 enhanced the NH4 ^+ uptake
